Measured values: patent publication US5026711A, “4-amino quinolines and naphthyridines and their use as medicines” (priority 1988, dated 1991)
Read-outs that look alike come from different tables or passages of the source.

How the values were obtained:
[1] = oral acute toxicity in the mouse (LD50); assay type: in vivo; settings: in vivo, oral route
Experimental: The compounds of Examples 3, 67, 90, 107 and 114 are atoxic at the dose of 500 mg/kg in the mouse.

[2] = biological target: T1, benzodiazepine receptors of the peripheral type (Felis catus, UniProt A0ABI7ZQW3); assay: inhibition of specific binding of [3H] PK11195 to peripheral type benzodiazepine receptors, membrane proteins of cat brain
T1 sequence (A0ABI7ZQW3 15-183): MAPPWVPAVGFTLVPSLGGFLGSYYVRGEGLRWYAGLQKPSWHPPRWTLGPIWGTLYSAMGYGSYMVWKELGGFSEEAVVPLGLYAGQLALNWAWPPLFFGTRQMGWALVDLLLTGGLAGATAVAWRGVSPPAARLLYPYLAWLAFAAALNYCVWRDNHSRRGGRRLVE
Experimental: The method is similar to that described by J. Benavides et al. in Brain Res. Bull. 13 p. 69-77 (1984) and references cited therein.
Suspensions of membrane proteins of cat brain were prepared as described by J. Benavides.
The assays of inhibition of the binding of [^3 H]
Non specific binding was defined as the amount of [^3 H]

[3] = system: receptors of the peripheral type; assay: in vivo inhibition of [3H] PK11195 binding to peripheral type receptors in organs of the mouse
Experimental: The assays were carried out in the mouse by using the binder [^3 H]
The products to be tested are administered orally in suspension in an aqueous solution of carboxymethylcellulose (1% wt/v) to groups of 4 mice 35 mn before the intravenous injection of [^3 H] […] 5 mn after the injection the animals are sacrificed by decapitation and the different organs are removed and ground in 10 ml Tris-HCl buffer (50 mM; pH=7.4) to give homogenates.
The control groups only received the carboxymethylcellulose solution and the injection of [^3 H]
A determination was made for each organ by means of scintigraphy of:
1--the amount of radioactive binder present in an organ by measuring the radioactivity of an aliquot of the homogenate.
2--the amount of radioactive binder bound to the membrane tissues of an organ by measuring the radioactivity bound on a fiber glass filter after filtration of another aliquot of the homogenate.
3--the amount of radioactive binder bound non-specifically to the membrane tissues by incubating a control homogenate with an excess of RO5-4864, a known binder, followed by binding of the membranes to a filter and measurement of the radioactivity remaining on the membranes.
The inhibition of specific binding, recorded as SB, is equal to the difference between the radioactivity measurements 2 and 3 divided by measurement 1.
The percentages of inhibition of the binding in different organs determined for compounds of the invention and the reference substances are shown in table VI; they are given by the formula: [formula]

[4] = system: central benzodiazepine receptors; assay: inhibition of specific binding of [3H] flunitrazepam to central benzodiazepine receptors, rat brain; settings: 4° C., pH 7.4
Experimental: (b) determination of the concentration of the product under study inhibiting 50% of the specific binding of flunitrazepam to the central receptors.
The brains of rats were removed after decapitation and ground, then placed in suspension in an aqueous solution of sucrose (0.32M). The mixture is centrifuged and the pellet is resuspended to give a homogenous suspension in a TRIS-HCl buffered solution (50 mM; pH=7.4). Aliquots of this suspension are incubated at 4° C. after addition of [^3 H] flunitrazepam, alone or with increasing amounts of the compound to be tested.

[5] = [3H] PK11195 0.5 nM, cat brain membranes, 4° C., 2h30; read-out: IC50 (peripheral)

| Structure (SMILES) | IC50 [2, 5] [nM] | IC50 [4] [nM] | also measured |
| --- | --- | --- | --- |
| CN(C(=O)CNc1c(C(=O)c2ccccc2)cnc2cccnc12)c1ccc(Cl)cc1 [SR 26276] |  |  | LD50 [1]: > 1800 mg/kg |
| CN1C(=O)CN=C(c2ccc(Cl)cc2)c2cc(Cl)ccc21 [R05-4864, 7-chloro 1,3-dihydro 1-methyl 5-(4-chlorophenyl) 1,4-2H-benzodiazepine 2-one, reference compound] |  |  | IC50 ([2]; read-out: IC50 (peripheral); [3H] PK11195 0.5 nM, cat brain membranes, 4° C., 2h30): 44 nM; % Inhibition, brain ([3]; 15 mg/kg oral): 74%; % Inhibition, heart ([3]; 15 mg/kg oral): 27%; % Inhibition, kidney ([3]; 15 mg/kg oral): 73%; % Inhibition, spleen ([3]; 15 mg/kg oral): 11%; % Inhibition, thymus ([3]; 15 mg/kg oral): 28%; IC50 (central) [4]: inactive |
| CN(C(=O)CNc1c(C(=O)c2ccccc2)cnc2cc(Cl)ccc12)c1ccc(Cl)cc1 [compound 26412] | 0.4 | > 10000 | % Inhibition, brain ([3]; 25 mg/kg oral): 79%; % Inhibition, spleen ([3]; 25 mg/kg oral): 62% |
| CN(C(=O)CNc1c(C(=O)c2ccccc2)cnc2cc(Cl)cnc12)c1ccc(Cl)cc1 [compound 26830] | 0.13 | > 10000 | % Inhibition, brain ([3]; 25 mg/kg oral): 64%; % Inhibition, spleen ([3]; 25 mg/kg oral): 26% |
| CCN(C(=O)CNc1c(C(=O)c2ccccc2)cnc2cccnc12)c1ccc(Cl)cc1 [compound 26858] | 0.77 | > 10000 | % Inhibition, brain ([3]; 25 mg/kg oral): 95%; % Inhibition, spleen ([3]; 25 mg/kg oral): 84% |
| COc1ccc(C(=O)c2cnc3cccnc3c2NCC(=O)N(C)c2ccc(Cl)cc2)cc1 [compound 27153] | 1.62 | 47900 | % Inhibition, brain ([3]; 25 mg/kg oral): 87%; % Inhibition, spleen ([3]; 25 mg/kg oral): 52% |
| CN(C(=O)CNc1c(C(=O)c2ccccc2)cnc2cccnc12)c1ccc(Cl)cc1 [compound 26276] | 0.3 | 13400 | % Inhibition, brain ([3]; 8 mg/kg oral): 78%; % Inhibition, heart ([3]; 8 mg/kg oral): 30%; % Inhibition, kidney ([3]; 8 mg/kg oral): 69%; % Inhibition, spleen ([3]; 8 mg/kg oral): 37%; % Inhibition, thymus ([3]; 8 mg/kg oral): 34% |
| CCC(C)N(C)C(=O)c1cc2ccccc2c(-c2ccccc2Cl)n1 (stereo not drawn) [PK11195, 1-(2-chlorophenyl) 3-(N-methyl N-methylpropyl) carbamoyl isoquinoline, reference compound] | 1.3 |  | % Inhibition, brain ([3]; 15 mg/kg oral): 71%; % Inhibition, heart ([3]; 15 mg/kg oral): 27%; % Inhibition, kidney ([3]; 15 mg/kg oral): 54%; % Inhibition, spleen ([3]; 15 mg/kg oral): 29%; % Inhibition, thymus ([3]; 15 mg/kg oral): 30% |
| CCCN(CCC)C(=O)CNc1c(C(=O)c2cccnc2)cnc2cc(Cl)ccc12 [compound 26610] | 35 | > 10000 |  |
| CCCN(CCC)C(=O)C(C)Nc1c(C(=O)OCC)cnc2nc(Cl)ccc12 (stereo not drawn) [compound 26493] | 12 | > 20000 |  |
| CCCN(CCC)C(=O)C(C)Nc1c(C(=O)O)cnc2cc(Cl)ccc12 (stereo not drawn) [compound 26632] | 101 | > 20000 |  |
| CCCN(CCC)C(=O)CNc1c(C(=O)c2ccccc2)cnc2cc(Cl)ccc12 [compound 26290] | 10 | > 10000 |  |
| C=CCN(C(=O)CNc1c(C(=O)c2ccccc2)cnc2cccnc12)c1ccc(Cl)cc1 [compound 27181] | 0.89 | > 10000 |  |
| CN(C(=O)CNc1c(C(=O)c2cccnc2)cnc2cc(Cl)ccc12)c1ccc(Cl)cc1 [compound 26643] | 1.2 | > 10000 |  |
| COc1ccc2ncc(C(=O)c3ccccc3)c(NCC(=O)N(C)c3ccc(Cl)cc3)c2n1 [compound 26698] | 1.95 | > 10000 |  |
| CC(Nc1c(C(=O)c2ccccc2)cnc2cccnc12)C(=O)N(C)c1ccc(Cl)cc1 (stereo not drawn) [compound 26455] | 1 | > 10000 |  |
| CN(C(=O)CNc1c(C(=O)c2ccccc2)cnc2cnccc12)c1ccc(Cl)cc1 [compound 26919] | 52 | > 10000 |  |
| CCCN(CCC)C(=O)C(C)Nc1c(C(=O)OCC)cnc2cc(Cl)ccc12 (stereo not drawn) [compound 26310] | 1 | > 20000 | % Inhibition, brain ([3]; 25 mg/kg oral): 76%; % Inhibition, heart ([3]; 25 mg/kg oral): 39%; % Inhibition, kidney ([3]; 25 mg/kg oral): 32%; % Inhibition, spleen ([3]; 25 mg/kg oral): 52%; % Inhibition, thymus ([3]; 25 mg/kg oral): 31% |
| COc1ccc(N(C)C(=O)CNc2c(C(=O)c3ccccc3)cnc3cccnc23)cc1 [compound 27161] | 2.3 | > 10000 | % Inhibition, brain ([3]; 25 mg/kg oral): 92%; % Inhibition, spleen ([3]; 25 mg/kg oral): 78% |
| CN(C(=O)CNc1c(C(=O)c2ccccc2)cnc2cc(Br)ccc12)c1ccc(Cl)cc1 [compound 26876] | 0.5 | > 10000 | % Inhibition, brain ([3]; 25 mg/kg oral): 84%; % Inhibition, spleen ([3]; 25 mg/kg oral): 64% |
| CCCN(CCC)C(=O)C(C)Nc1c(C(=O)OCC)cnc2ccc(C3CCCCC3)cc12 (stereo not drawn) [compound 26487] | 39 | > 20000 |  |

| Structure (SMILES) | IC50 [2, 5] [nM] | IC50 [4] [nM] | also measured |
| --- | --- | --- | --- |
| CCCN(CCC)C(=O)C(C)Nc1c(C(=O)OCC)cnc2cc3c(cc12)OCO3 (racemic) [compound 26552] | 31 | 12400 |  |
| CCCN(CCC)C(=O)C(C)Nc1c(C(=O)OCC)cnc2cc(OC)c(OC)cc12 (stereo not drawn) [compound 26641] | 356 | > 20000 |  |
| CN(C(=O)CNc1c(C(=O)c2ccccc2)c[n+]([O-])c2cccnc12)c1ccc(Cl)cc1 [compound 26838] | 10.8 | 7650 |  |
| CN(CC(=O)N(C)c1ccc(Cl)cc1)c1c(C(=O)c2ccccc2)cnc2nc(Cl)ccc12 [compound 26578] | 330 | 48900 |  |
| CN(C(=O)CNc1c(C(=O)c2ccccc2)cnc2ccc(Cl)cc12)c1ccc(Cl)cc1 [compound 26620] | 2.8 | > 10000 |  |
| CCCCN(CCCC)C(=O)CNc1c(C(=O)c2ccccc2)cnc2cc(Cl)ccc12 [compound 26386] | 16 | > 10000 |  |
| CNC1=Nc2ccc(Cl)cc2C(c2ccccc2)=[N+]([O-])C1 [CHLORDIAZEPOXIDE, reference compound] |  | 654 | IC50 (peripheral) ([2]; [3H] PK11195 0.5 nM, cat brain membranes, 4° C., 2h30): inactive |
| COc1ccc(N(C)C(=O)CNc2c(C(=O)c3ccccc3)cnc3cc(Cl)ccc23)cc1 [compound 26846] | 2.9 | > 10000 | % Inhibition, brain ([3]; 25 mg/kg oral): 91%; % Inhibition, spleen ([3]; 25 mg/kg oral): 80% |
| CCCN(CCC)C(=O)C(C)Nc1c(C(=O)OCC)cnc2cccc(Cl)c12 (stereo not drawn) [compound 26399] | 7 | 12700 |  |
| CN(C(=O)CNc1c(C(=O)c2ccccc2)cnc2cc(Cl)c(Cl)nc12)c1ccc(Cl)cc1 [compound 26918] | 0.16 | 1680 |  |
| CCCN(C(=O)CNc1c(C(=O)c2ccccc2)cnc2cc(Cl)ccc12)c1ccc(Cl)cc1 [compound 26397] | 4 | > 10000 |  |
| CCCN(CCC)C(=O)C(C)Nc1c(C(=O)OCC)cnc2cc(Cl)c(Cl)cc12 (stereo not drawn) [compound 26492] | 1 | > 20000 |  |
| CCCCOC(=O)c1cnc2cc(Cl)ccc2c1NC(C)C(=O)N(CCC)CCC (stereo not drawn) [compound 26449] | 1 | > 20000 |  |
| CCCN(CCC)C(=O)C(C)Nc1c(C(=O)OCC)cnc2cc(C(F)(F)F)ccc12 (stereo not drawn) [compound 26241] | 3 | > 20000 |  |
| CCCN(CCC)C(=O)C(C)Nc1c(C(=O)OCC)cnc2cc(C)c(C)cc12 (stereo not drawn) [compound 26421] | 5 | 53000 |  |
| CCCN(CCC)C(=O)CNc1c(C(=O)c2ccccc2)cnc2c(Cl)cccc12 [compound 26307] | 175 | > 10000 |  |
| CCCN(CCC)C(=O)C(C)Nc1c(C(=O)OCC)c(C)nc2ccc(Cl)cc12 (stereo not drawn) [compound 26319] | 8 | 14000 |  |
| CCCC(CCC)(CCC)NC(=O)CNc1c(C(=O)c2ccccc2)cnc2cccnc12 [compound 26361] | 16 | > 10000 |  |
| CN(C(=O)CCNc1c(C(=O)c2ccccc2)cnc2cccnc12)c1ccc(Cl)cc1 [compound 26731] | 2.74 | > 10000 |  |
| CCCN(CCC)C(=O)C(C)Nc1c(C(=O)OCC)cnc2cc(F)ccc12 (stereo not drawn) [compound 26920] | 18 | > 20000 |  |
